Reference: patent US8697683B2, “Azetidinyl diamides as monoacylglycerol lipase inhibitors” (Janssen Pharmaceutica, NV, priority 2009, dated 2014)
Positions count from the first letter of the chain named. Where two headings read alike, the source gives them in different places. Values belong to the compound of their own block, whether it stands above or below them.

Key:
[1] = biological target: T1, purified wild type MGL (wt-MGLL 6H-11-313) (Homo sapiens, UniProt Q99685)
T1 sequence (Q99685 1-303): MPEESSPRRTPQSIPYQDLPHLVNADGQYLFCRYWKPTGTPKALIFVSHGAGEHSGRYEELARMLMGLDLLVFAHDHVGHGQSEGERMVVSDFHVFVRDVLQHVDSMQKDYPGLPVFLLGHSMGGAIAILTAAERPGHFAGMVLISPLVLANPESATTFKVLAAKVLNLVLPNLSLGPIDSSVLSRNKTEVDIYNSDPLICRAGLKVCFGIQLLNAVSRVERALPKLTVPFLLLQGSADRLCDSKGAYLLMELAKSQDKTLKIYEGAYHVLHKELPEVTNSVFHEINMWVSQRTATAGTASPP

[2] = biological target: T2, mutant MGL (Homo sapiens, UniProt Q99685, L169S/L176S); assay: MGL ThermoFluor Assay-Mutant
T2 sequence (Q99685 1-303 L169S/L176S): T1 sequence (Q99685 1-303) with L169S, L176S
Experimental: The ThermoFluor (TF) assay is a 384-well plate-based binding assay that measures thermal stability of proteins^1,2. […] TF dye used in all experiments was 1,8-ANS (Invitrogen: A-47). Final TF assay conditions used for MGL studies were 0.07 mg/ml of mutant MGL, 100 μM ANS, 200 mM NaCl, 0.001% Tween-20 in 50 mM PIPES (pH=7.0).
Screening compound plates contained 100% DMSO compound solutions at a single concentration. […] Columns 12 and 24 were used as DMSO reference and contained no compound. […] Following compound dispension, protein and dye solutions were added to achieve the final assay volume of 3 μL.
Bar-coded assay plates were robotically loaded onto a thermostatically controlled PCR-type thermal block and then heated from 40 to 90° C. degrees at a ramp-rate of 1° C./min for all experiments. Fluorescence was measured by continuous illumination with UV light (Hamamatsu LC6), supplied via fiber optics and filtered through a band-pass filter (380-400 nm; >60D cutoff). Fluorescence emission of the entire 384-well plate was detected by measuring light intensity using a CCD camera (Sensys, Roper Scientific) filtered to detect 500±25 nm, resulting in simultaneous and independent readings of all 384 wells. A single image with 20-sec exposure time was collected at each temperature, and the sum of the pixel intensity in a given area of the assay plate was recorded vs temperature and fit to standard equations to yield the Tm^1. • 1.
For some experiments, quantitative NMR spectroscopy (qNMR) was used to measure concentration of the initial 100% DMSO compound solutions and, using the same fitting method, qKd values were determined

[3] = test system: tactile allodynia; assay: Spinal Nerve Ligation (SNL) Model of Neuropathic Pain-Tactile Allodynia Test; format: in vivo, rat; conditions: L5 SNL rats, 30 mg/kg p.o., HPβCD vehicle, last time point 4 h
Excerpt: For lumbar 5 (L5) spinal nerve ligation (SNL) studies, anesthesia was induced and maintained on isoflurane inhalation. Fur was clipped over the dorsal pelvic area, and a 2-cm skin incision was made just left of midline over the dorsal aspect of the L4-S2 spinal segments, followed by separation of the paraspinal muscles from spinous processes. The transverse process of L6 was then carefully removed, and the L5 spinal nerve was identified. The left L5 spinal nerve was then ligated tightly with 6-0 silk thread, the muscle was sutured with 4-0 vicryl, and the skin was closed with wound clips. Following surgery, s.c. saline (5 mL) was administered. Behavioral testing was performed four weeks post-ligation. Following baseline von Frey determinations to verify the presence of mechanical allodynia, L5 SNL rats were orally administered the indicated vehicle or drug. […] which the paw ipsilateral to the nerve ligation was withdrawn from the application of a series of calibrated von Frey filaments (0.4, 0.6, 1.0, 2.0, 4, 6, 8 and 15 g; Stoelting; Wood Dale, Ill.). Beginning at an intermediate stiffness (2.0 g), filaments were applied to the mid-plantar hind paw for approximately 5 seconds. to determine the response threshold, a brisk paw withdrawal led to the presentation of the next lighter stimulus, whereas a lack of a withdrawal response led to the presentation of the next stronger stimulus. A total of four responses after the first threshold detection were collected. The 50% withdrawal thresholds were interpolated by the method of Dixon, Efficient analysis of experimental observations. Annu. Rev. Pharmacol. […] Neurosci. […] Threshold data from von Frey filament testing were reported as withdrawal threshold in grams. Data were normalized and results are presented as % MPE (maximum possible effect) of the drug calculated according to the following formula: [formula]

[4] = biological target: T3, MGL (Rattus norvegicus, UniProt Q8R431); assay: 2-AG Accumulation Assay (rat brain homogenate); format: biochemical; conditions: compound 1 μM, percent of vehicle 2-AG accumulation
T3 construct: one g rat brain was homogenized
T3 sequence (Q8R431 1-303): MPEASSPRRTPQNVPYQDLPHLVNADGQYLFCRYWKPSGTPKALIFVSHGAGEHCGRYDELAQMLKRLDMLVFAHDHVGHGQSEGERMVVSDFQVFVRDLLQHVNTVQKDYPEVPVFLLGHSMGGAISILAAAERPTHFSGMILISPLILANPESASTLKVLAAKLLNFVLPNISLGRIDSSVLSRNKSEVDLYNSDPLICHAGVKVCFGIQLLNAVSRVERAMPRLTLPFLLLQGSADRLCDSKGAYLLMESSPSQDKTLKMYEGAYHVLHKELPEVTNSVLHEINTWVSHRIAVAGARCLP

[5] = test system: CFA-induced thermal hypersensitivity; assay: CFA-Induced Paw Radiant Heat Hypersensitivity; format: in vivo; conditions: rat, 30 mg/kg p.o., HPβCD vehicle; for Method 1: peak % reversal: group mean values, maximum at any time point up to 180 or 300 min
Experimental: A radiant thermal stimulus (beam of light) was then focused through the glass onto the plantar surface of each hind paw in turn. […] An initial (baseline) response latency to the thermal stimulus was recorded for each animal prior to the injection of complete Freund's adjuvant (CFA). 24 h following intraplantar CFA injection, the response latency of the animal to the thermal stimulus was then re-evaluated and compared to the animal's baseline response time. […] Immediately following the post-CFA latency assessment, the indicated test compound or vehicle was administered orally. […] More specifically: For all compounds, the % R of hypersensitivity was calculated using the mean value for groups of animals at each time point according to the following formula: % reversal=[(group treatment response−group CFA response)/(group baseline response−group CFA response)]×100 Results are given for the maximum % reversal observed for each compound at any time point tested. For some compounds, the % R of hypersensitivity was calculated separately for each animal according to the following formula: % reversal=[(individual treatment response−individual CFA response)/(individual baseline response−individual CFA response)]×100. Results are given as a mean of the maximum % reversal values calculated for each individual animal.

[6] = test system: CFA induced paw pressure hypersensitivity; assay: CFA-Induced Paw Pressure Hypersensitivity; format: in vivo; conditions: rat, dose 30, s.c., HPβCD vehicle, time 1 h
Experimental: Prior to testing, rats were acclimated to the handling procedure twice a day for a period of two days. […] The endpoint was automatically reached upon hindpaw withdrawal, and the terminal force was noted (in grams). An initial (baseline) response threshold to the mechanical stimulus was recorded for each animal prior to the injection of complete Freund's adjuvant (CFA). Forty hr following intraplantar CFA injection, the response threshold of the animal to the mechanical stimulus was re-evaluated and compared to the animal's baseline response threshold. A response was defined as a withdrawal of the hindpaw, a struggling to remove the hindpaw or vocalization. […] Immediately following the post-CFA threshold assessment, rats were administered the indicated test compound or vehicle. Post-treatment withdrawal thresholds were assessed at 1 h. Paw withdrawal thresholds were converted to percent reversal of hypersensitivity according to the following formula: % reversal=[(post treatment response−predose response)/(baseline response−predose response)]×100.

[7] = read-out: MGL wild type inh IC50, 4MU-B substrate 10 μM, 37° C.
[8] = read-out: MGL mutant ThermoFluor Kd, ThermoFluor thermal stability binding assay
[9] = read-out: MGL wild type inh IC50, substrate 4MU-B 10 μM, enzyme 5 nM, 37° C.
[10] = read-out: MGL wild type inh IC50, substrate 4MU-B 10 μM, 37° C.
[11] = read-out: MGL mutant ThermoFluor qKd (μM) (using qNMR conc.), compound concentration measured by quantitative NMR (qNMR)
[12] = read-out: MGL mutant ThermoFluor Kd, 0.07 mg/ml, fit of concentration-response of Tm
[13] = read-out: MGL mutant ThermoFluor qKd (μM) (using qNMR conc.), ThermoFluor, compound concentration measured by qNMR

Compound: O=C(c1cscn1)N1CCN(C2CN(C(=O)c3sc4cc(C(F)(F)F)ccc4c3Cl)C2)CC1 [Cpd 335, 1-(1-{[3-Chloro-6-(trifluoromethyl)-1-benzothiophen-2-yl]carbonyl}azetidin-3-yl)-4-(1,3-thiazol-4-ylcarbonyl)piperazine]
peak % MPE [3]: 50.1%

Compound: Cc1sc(C(=O)N2CC(N3CCN(C(=O)c4nccs4)CC3)C2)cc1Br [Cpd 745]
IC50 [1, 9]: 342 nM | Kd [2, 11]: 0.283 µM

Compound: Cc1c(C(=O)N2CCN(C3CN(C(=O)c4nccs4)C3)CC2)n(C)c2ccc(Cl)cc12 [Cpd 762]
IC50 [1, 10]: 632 nM | Kd [2, 13]: 1 µM

Compound: O=C(c1cn2cc(Cl)cc(Br)c2n1)N1CC(N2CCN(C(=O)c3nccs3)CC2)C1 [Cpd 1452]
IC50 [1, 9]: > 16700 nM | Kd [2, 11]: 5.42 µM

Compound: 5-[2-(4-Chlorophenyl)-1-methyl-vinyl]-1-(2,4-dichloro-phenyl)-4-methyl-1H-pyrazole-3-carboxylic acid [Cpd 1010]
IC50 [1, 10]: < 5 nM | Kd [2, 8]: 0.017 µM | Kd [2, 13]: 0.04 µM | Rat Brain 2AG % VehCntrl (%) @1 μM [4]: 1953% | Method 1: peak % reversal [5]: 23.4%

Compound: O=C(c1nc2cc(-c3ccc(OC(F)(F)F)cc3)ccc2[nH]1)N1CC(N2CCN(C(=O)c3nccs3)CC2)C1 [Cpd 1303]
IC50 [1, 7]: 5110 nM | Kd [2, 11]: 7.12 µM

Compound: Cc1cc2nc(C(=O)N3CC(N4CCN(C(=O)c5nccs5)CC4)C3)cn2cc1Br [Cpd 852]
IC50 [1, 9]: 8080 nM | Kd [2, 13]: 1.98 µM

Compound: O=C(c1nccs1)N1CCN(C2CN(C(=O)c3nn(-c4ccc(Cl)cc4Cl)c4c3CCCC4)C2)CC1 [Cpd 1267]
IC50 [1, 10]: 1120 nM | Kd [2, 13]: 0.741 µM

Compound: O=C(c1ccc2c(ccn2-c2ccc(F)c(F)c2)c1)N1CC(N2CCN(C(=O)c3nccs3)CC2)C1 [Cpd 1362, 1-(3,4-Difluorophenyl)-5-({3-[4-(1,3-thiazol-2-ylcarbonyl)piperazin-1-yl]azetidin-1-yl}carbonyl)-1H-indole]
peak % MPE [3]: 84.3% | percent reversal [6]: 56.7%

Compound: O=C(c1ccc[nH]1)N1CCN(C2CN(C(=O)c3nn(-c4ccc(Cl)cc4Cl)c4c3CCCC4)C2)CC1 [Cpd 1309]
IC50 [1, 10]: 9360 nM | Kd [2, 13]: 6.54 µM

Compound: O=C(c1ccc(-c2ccccc2)cc1)N1CC(N2CCN(C(=O)c3ccccc3)CC23CC3)C1 [Cpd 1499]
IC50 [1, 9]: > 16700 nM

Compound: O=C(c1ccc2c(c1)CCCN2Cc1ccc(C(F)(F)F)cc1)N1CC(N2CCN(C(=O)c3nccs3)CC2)C1 [Cpd 371, 6-({3-[4-(1,3-Thiazol-2-ylcarbonyl)piperazin-1-yl]azetidin-1-yl}carbonyl)-1-(4-trifluoromethylbenzyl)-1,2,3,4-tetrahydroquinoline]
Rat Brain 2AG % VehCntrl (%) @1 μM [4]: 1138%

The next lines start with results.

IC50 [1, 7]: 2680 nM | Kd [2, 8]: 4.71 µM
Compound: O=C(c1ccccc1)N1CCN(C2CN(C(=O)c3ccc(Oc4cccc(F)n4)cc3)C2)CC1 [Cpd 522]

IC50 [1, 9]: 8780 nM | Kd [2, 8]: 4.21 µM
Compound: O=C(c1ccc(-c2ccc(Cl)cc2)[nH]1)N1CC(N2CCN(C(=O)c3nccs3)CC2)C1 [Cpd 1307]

IC50 [1, 10]: 1870 nM | Kd [2, 8]: 2.13 µM
Compound: O=C(c1ccc(Oc2cccc(Cl)c2)nc1)N1CC(N2CCN(C(=O)c3cscn3)CC2)C1 [Cpd 803]

IC50 [1, 7]: 460 nM | Kd [2, 11]: 0.638 µM
Compound: Cn1nccc1-c1ccc2cc(C(=O)N3CC(N4CCN(C(=O)c5nccs5)CC4)C3)[nH]c2c1 [Cpd 1241]

IC50 [1, 9]: > 16700 nM | Kd [2, 12]: > 31.2 µM
Compound: O=C(c1nccs1)N1CCN(C2CN(C(=O)c3c[nH]nc3-c3ccccc3)C2)CC1 [Cpd 1475]

IC50 [1, 7]: 2000 nM | Kd [2, 12]: 6.41 µM
Compound: O=C(c1nccs1)N1CCN(C2CN(C(=O)c3cccc4c3CN(c3ccccc3)CC4)C2)CC1 [Cpd 805]

IC50 [1, 9]: 2190 nM | Kd [2, 12]: 0.644 µM
Compound: O=C(c1cc2cc(Br)ccc2o1)N1CC(N2CCN(C(=O)c3nccs3)CC2)C1 [Cpd 812]

IC50 [1, 10]: 146 nM
Compound: O=C(c1ccccc1)N1CCN(C2CN(C(=O)c3ccc4c(c3)c(F)cn4-c3ccccc3)C2)CC1 [Cpd 589]

IC50 [1, 10]: 4370 nM | Kd [2, 8]: 1.67 µM
Compound: O=C(c1ccccc1)N1CC(N2CCN(C(=O)c3cc4cc(Cl)ccc4o3)CC2)C1 [Cpd 524]

Kd [2, 12]: 0.006 µM | Rat Brain 2AG % VehCntrl (%) @1 μM [4]: 878%
Compound: O=C(c1ccc(-c2cccc(C(F)(F)F)c2)c(Cl)c1)N1CC(N2CCN(C(=O)c3cscn3)CC2)C1 [Cpd 1102]
Method 1: peak % reversal [5]: 38% | Method 2: peak % reversal ([5]; mean of individual animal maximum values, up to 180 or 300 min): 45.3%

IC50 [1, 7]: 162 nM | Kd [2, 8]: 2 µM
Compound: O=C(c1ccc(SCc2cccc(C(F)(F)F)c2)cc1)N1CC(N2CCN(C(=O)c3cscn3)CC2)C1 [Cpd 975]

IC50 [1, 10]: 638 nM | Kd [2, 8]: 2 µM
Compound: COc1ccc(-c2cccc(C(=O)N3CC(N4CCN(C(=O)c5cscn5)CC4)C3)c2)cc1 [Cpd 1250]

IC50 [1, 10]: 281 nM | Kd [2, 13]: 0.037 µM
Compound: O=C(c1ccccc1)N1CCN(C2CN(C(=O)c3ccc4c(ccn4-c4ccccc4)c3F)C2)CC1 [Cpd 632]

IC50 [1, 7]: 769 nM | Kd [2, 12]: 0.048 µM | Rat Brain 2AG % VehCntrl (%) @1 μM [4]: 147%
Compound: O=C(c1nccs1)N1CCN(C2CN(C(=O)c3cccc4nc(-c5ccccc5)[nH]c34)C2)CC1 [Cpd 1255]

Kd [2, 8]: 10 µM
Compound: COc1cncc(Oc2ccc(C(=O)N3CC(N4CCN(C(=O)c5ccccc5)CC4)C3)cc2)c1 [Cpd 533]

IC50 [1, 9]: > 16700 nM | Kd [2, 12]: 18.8 µM
Compound: O=C(c1ccccc1)N1CCN(C2CN(C(=O)c3cc4cc(Br)ccc4o3)C2)CC1 [Cpd 1492]

IC50 [1, 7]: 2500 nM | Kd [2, 13]: 1.43 µM
Compound: O=C(c1ccc(OCc2cccc(Br)n2)cc1)N1CC(N2CCN(C(=O)C(F)(F)F)CC2)C1 [Cpd 984]
